Each structure is given as a SMILES string.

The text below walks through data of patent publication US8530461B2 (Boehringer Ingelheim International GmbH, priority 2011, dated 2013).

The test deals with T1, human ACC2 (Homo sapiens, UniProt O00763).
T1 construct: made in house; host or cells: insect cells (baculoviral expression system)
T1 sequence (O00763 129-2458 limits assumed): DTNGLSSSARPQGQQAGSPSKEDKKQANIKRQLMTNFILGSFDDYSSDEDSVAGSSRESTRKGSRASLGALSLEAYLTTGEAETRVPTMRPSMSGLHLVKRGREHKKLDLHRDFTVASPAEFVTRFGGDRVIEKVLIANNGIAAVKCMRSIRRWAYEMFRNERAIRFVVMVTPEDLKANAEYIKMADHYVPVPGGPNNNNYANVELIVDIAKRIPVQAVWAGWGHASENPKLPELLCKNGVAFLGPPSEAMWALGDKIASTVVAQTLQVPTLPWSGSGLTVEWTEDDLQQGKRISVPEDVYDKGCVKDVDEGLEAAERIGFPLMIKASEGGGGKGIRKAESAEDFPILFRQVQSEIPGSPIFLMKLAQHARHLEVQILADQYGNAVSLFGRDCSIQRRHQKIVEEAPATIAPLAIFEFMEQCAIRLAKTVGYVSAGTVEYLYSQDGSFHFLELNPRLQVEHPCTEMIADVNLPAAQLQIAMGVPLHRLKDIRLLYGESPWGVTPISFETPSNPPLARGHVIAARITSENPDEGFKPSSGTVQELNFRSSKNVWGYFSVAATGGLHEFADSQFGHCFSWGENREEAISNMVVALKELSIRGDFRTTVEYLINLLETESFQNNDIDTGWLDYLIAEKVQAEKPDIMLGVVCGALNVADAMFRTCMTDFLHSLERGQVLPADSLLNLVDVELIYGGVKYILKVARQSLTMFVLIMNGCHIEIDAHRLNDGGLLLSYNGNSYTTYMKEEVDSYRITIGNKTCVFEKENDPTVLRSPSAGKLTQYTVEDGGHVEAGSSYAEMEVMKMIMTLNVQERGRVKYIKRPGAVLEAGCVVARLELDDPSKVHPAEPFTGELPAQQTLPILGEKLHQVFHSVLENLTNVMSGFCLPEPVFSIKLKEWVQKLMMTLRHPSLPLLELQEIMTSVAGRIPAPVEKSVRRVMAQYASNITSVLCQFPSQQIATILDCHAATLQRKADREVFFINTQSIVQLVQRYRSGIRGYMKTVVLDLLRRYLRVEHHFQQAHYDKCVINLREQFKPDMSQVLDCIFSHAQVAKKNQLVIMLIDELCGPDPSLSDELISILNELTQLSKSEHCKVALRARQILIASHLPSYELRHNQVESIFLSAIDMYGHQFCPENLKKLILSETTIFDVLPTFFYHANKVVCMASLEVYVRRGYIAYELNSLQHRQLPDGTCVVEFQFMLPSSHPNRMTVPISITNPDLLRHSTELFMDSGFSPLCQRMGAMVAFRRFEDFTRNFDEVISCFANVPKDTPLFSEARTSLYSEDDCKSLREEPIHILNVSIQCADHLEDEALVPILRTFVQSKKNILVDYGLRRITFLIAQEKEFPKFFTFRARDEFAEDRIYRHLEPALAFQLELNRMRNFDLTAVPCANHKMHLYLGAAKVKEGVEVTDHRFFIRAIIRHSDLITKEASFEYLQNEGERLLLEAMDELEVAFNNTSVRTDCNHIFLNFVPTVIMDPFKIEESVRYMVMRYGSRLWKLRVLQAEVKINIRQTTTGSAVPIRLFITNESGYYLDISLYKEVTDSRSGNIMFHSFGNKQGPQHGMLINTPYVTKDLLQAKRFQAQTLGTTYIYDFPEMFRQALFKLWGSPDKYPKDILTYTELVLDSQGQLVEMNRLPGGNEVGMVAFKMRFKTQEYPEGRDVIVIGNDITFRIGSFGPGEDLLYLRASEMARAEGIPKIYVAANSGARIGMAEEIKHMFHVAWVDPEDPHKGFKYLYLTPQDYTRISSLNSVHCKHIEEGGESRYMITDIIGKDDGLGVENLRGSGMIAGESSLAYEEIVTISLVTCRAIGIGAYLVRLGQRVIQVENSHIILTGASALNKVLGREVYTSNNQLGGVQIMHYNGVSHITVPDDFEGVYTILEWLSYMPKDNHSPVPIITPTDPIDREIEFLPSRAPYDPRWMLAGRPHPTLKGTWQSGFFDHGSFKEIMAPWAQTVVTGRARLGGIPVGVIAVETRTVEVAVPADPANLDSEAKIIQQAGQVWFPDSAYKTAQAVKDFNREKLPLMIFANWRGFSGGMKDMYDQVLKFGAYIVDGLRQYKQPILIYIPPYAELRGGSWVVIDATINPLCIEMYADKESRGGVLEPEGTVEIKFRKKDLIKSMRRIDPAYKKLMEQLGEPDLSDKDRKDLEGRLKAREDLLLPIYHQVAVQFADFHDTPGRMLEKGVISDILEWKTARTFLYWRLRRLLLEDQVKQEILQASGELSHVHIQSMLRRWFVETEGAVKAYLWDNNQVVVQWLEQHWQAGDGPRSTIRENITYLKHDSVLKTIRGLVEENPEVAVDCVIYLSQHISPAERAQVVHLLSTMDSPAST
Description: ACC2 assay, spectrophotometric 384 well assay (NADH-linked, coupled lactate dehydrogenase/pyruvate kinase). It counts as biochemical. Particulars: ACC2 assay; human ACC2 construct lacking 128 N-terminal amino acids; 25° C., 340 nm, 15 minutes; read-out: IC50. The method, then:
Spectrophotometric 384 Well Assay
Malonyl CoA formation by acetyl CoA carboxylases is stoichometrically linked to the consumption of ATP. ACC2 activity is measured in a NADH-linked kinetic method measuring ADP generated during the ACC reaction using a coupled lactate dehydrogenase/pyruvate kinase reaction.
For biological testing, a human ACC2 construct which lacks the 128 amino acids at the N-terminus for increased solubility (nt 385-6966 in Genbank entry AJ575592) is cloned. The protein is then expressed in insect cells using a baculoviral expression system. Protein purification is performed by anion exchange.
All compounds are dissolved in dimethyl sulfoxide (DMSO) to a concentration of 10 mM.
Assay reactions are then carried out in 384-well plates, with hACC2 in an appropriate dilution and at final assay concentrations (f.c.) of 100 mM Tris (pH 7.5), 10 mM trisodium citrate, 25 mM KHCO3, 10 mM MgCl2, 0.5 mg/ml BSA, 3.75 mM reduced L-glutathione, 15 U/ml lactate dehydrogenase, 0.5 mM phosphoenolpyruvate, 15 U/ml pyruvate kinase, compounds at different concentrations at final DMSO concentrations of 1%.
The enzymatic reaction is then started by addition of a mixture of NADH, acetyl Coenzyme A (both […].) and ATP (500 uM f.c.). The decrease of the optical density (slope S) is then determined at 25° C. at a wavelength of 340 nm over 15 minutes in a spectrophotometric reader.
Each assay microtiter plate contains wells with vehicle instead of compound as controls for the non-inhibited enzyme (100% CTL; ‘HIGH’) and wells without acetyl-CoA as controls for non-specific NADH degradation (0% CTL; ‘LOW’).
The slope S is used for calculation of % CTL=(S(compound)−S(‘LOW’))/(S(‘HIGH’)−S(‘LOW’))100. Compounds will give values between 100% CTL (no inhibition) and 0% CTL (complete inhibition).
For IC50 value determination, the sample slope in the presence of the test compound after subtraction of the low controls (S(compound)−S(‘LOW’)) are used.
An IC50 value is derived from the compound slopes at different dosages after subtraction of the low controls (S(compound)−S(‘LOW’)) by non-linear regression curve fitting (equation y=(A+((B−A)/(1+((C/x)^D))))).
In the case of `CCOc1ccc(OC2CN(c3ccc([C@H](C)NC(=O)C4CC4)cc3)C2)c(F)c1` [Example 7.2, (S)-Cyclopropanecarboxylic acid (1-{4-[3-(4-ethoxy-2-fluoro-phenoxy)-azetidin-1-yl]-phenyl}-ethyl)-amide], the IC50 was determined as 2420 nM.

Turning to `CCOc1ccc(OC2CN(c3ccc([C@H](C)NC(=O)N(C)C)cc3)C2)c(F)c1` [Example 8.1, (S)-3-(1-{4-[3-(4-Ethoxy-2-fluoro-phenoxy)-azetidin-1-yl]-phenyl}-ethyl)-1,1-dimethyl-urea], the IC50 was found to be 250 nM.

For the compound `CCOc1ccc(OC2CN(c3ccc([C@H](C)NC(=O)c4cn[nH]c4)cc3)C2)c(F)c1` [Example 8.2, (S)-1H-Pyrazole-4-carboxylic acid (1-{4-[3-(4-ethoxy-2-fluoro-phenoxy)-azetidin-1-yl]-phenyl}-ethyl)-amide], the IC50 came to 2980 nM. Turning to `C[C@H](NC(=O)OC(C)(C)C)c1ccc(N2CC(Oc3ccc(OCC4CC4)cc3)C2)cc1` [Example 8.3, (S)-(1-{4-[3-(4-Cyclopropylmethoxy-phenoxy)-azetidin-1-yl]-phenyl}-ethyl)-carbamic acid tert-butyl ester], the IC50 amounted to 1370 nM. In the case of `CCOc1ccc(OC2CN(c3ccc([C@H](C)NC(=O)c4sc(NC(C)=O)nc4C)cc3)C2)c(F)c1` [Example 8.4, (S)-2-Acetylamino-4-methyl-thiazole-5-carboxylic acid (1-{4-[3-(4-ethoxy-2-fluoro-phenoxy)-azetidin-1-yl]-phenyl}-ethyl)-amide] it was 110 nM; in that of `CC(=O)N[C@@H](C)c1ccc(N2CC(Oc3ccc(OCc4ccccc4)cc3)C2)cc1` [Example 8.5, (S)—N-(1-{4-[3-(4-Benzyloxy-phenoxy)-azetidin-1-yl]-phenyl}-ethyl)-acetamide], 140 nM; in that of `CCOc1ccc(OC2CN(c3ccc(C(C)NC(C)=O)cn3)C2)cc1` (stereo not shown) [Example 8.6, N-(1-{6-[3-(4-Ethoxy-phenoxy)-azetidin-1-yl]-pyridin-3-yl}-ethyl)-acetamide], 170 nM.

With `CC(=O)N[C@@H](C)c1ccc(N2CC(Oc3cc(OCc4ccccc4)ccn3)C2)cc1` [Example 8.7, (S)—N-(1-{4-[3-(4-Benzyloxy-pyridin-2-yloxy)-azetidin-1-yl]-phenyl}-ethyl)-acetamide], the IC50 was determined as 2240 nM. In the case of `CC(=O)N[C@@H](C)c1ccc(N2CC(Oc3ccc(C(F)(F)F)cn3)C2)cc1` [Example 8.8, (S)—N-(1-{4-[3-(5-Trifluoromethyl-pyridin-2-yloxy)-azetidin-1-yl]-phenyl}-ethyl)-acetamide] it was 810 nM; in that of `CC(=O)N[C@@H](C)c1ccc(N2CC(Oc3ccc(OC(C)C)cc3)C2)cc1` [Example 9.1, (S)—N-(1-{4-[3-(4-Isopropoxy-phenoxy)-azetidin-1-yl]-phenyl}-ethyl)-acetamide], 70 nM; in that of `CCOc1ccc(OC2CN(c3ccc([C@H](C)NC(C)=O)cc3)C2)cc1` [Example 9.2], 90 nM. In the case of `CCCOc1ccc(OC2CN(c3ccc([C@H](C)NC(C)=O)cc3)C2)cc1` [Example 9.3] it was 50 nM; in that of `CC(=O)N[C@@H](C)c1ccc(N2CC(Oc3ccc(OC4CCC4)cc3)C2)cc1` [Example 9.4], 40 nM; in that of `CC(=O)N[C@@H](C)c1ccc(N2CC(Oc3ccc(OCC4CC4(F)F)cc3)C2)cc1` (stereo partly shown) [Example 9.5], 40 nM. Under `CC(=O)N[C@@H](C)c1ccc(N2CC(Oc3ccc(C)c(F)c3F)C2)cc1` [Example 10.1, (S)—N-(1-{4-[3-(2,3-Difluoro-4-methyl-phenoxy)-azetidin-1-yl]-phenyl}-ethyl)-acetamide] stands 1280 nM. On to `CC(=O)N[C@@H](C)c1ccc(N2CC(Oc3ccc(OC(F)(F)F)cc3)C2)cc1` [Example 10.2], for which the IC50 stood at 780 nM.

Take `CC(=O)N[C@@H](C)c1ccc(N2CC(Oc3ccc(-n4cccc4)cc3Cl)C2)cc1` [Example 10.3]: the IC50 is 910 nM.

Regarding `COc1ccc(OC2CN(c3ccc([C@H](C)NC(C)=O)cc3)C2)c(F)c1` [Example 10.4], the IC50 was found to be 280 nM. Regarding `CC(=O)N[C@@H](C)c1ccc(N2CC(Oc3ccc(OC(C)(C)C)cc3)C2)cc1` [Example 10.5], the IC50 was 640 nM. In the case of `CCOc1cc(F)c(OC2CN(c3ccc([C@H](C)NC(C)=O)cc3)C2)c(F)c1` [Example 10.6] it was 330 nM; in that of `CCOc1ccc(OC2CN(c3ccc([C@H](C)NC(C)=O)cc3)C2)c(F)c1F` [Example 10.7], 200 nM. In the case of `COc1ccc(OC2CN(c3ccc([C@H](C)NC(C)=O)cc3)C2)cn1` [Example 10.8] it was 740 nM. For the compound `CCC(C)c1ccc(OC2CN(c3ccc([C@H](C)NC(C)=O)cc3)C2)cc1` (stereo partly shown) [Example 10.10], the IC50 was 120 nM. In the case of `CC(=O)N[C@@H](C)c1ccc(N2CC(Oc3ccc4oc(C)cc4c3)C2)cc1` [Example 10.11] it was 100 nM.

In the case of `CC(=O)N[C@@H](C)c1ccc(N2CC(Oc3ccccc3)C2)cc1` [Example 10.12], the IC50 is 790 nM. Under `CC(=O)N[C@@H](C)c1ccc(N2CC(Oc3ccc4c(c3)OCO4)C2)cc1` [Example 10.13] stands 320 nM; under `CC(=O)N[C@@H](C)c1ccc(N2CC(Oc3ccc(C)cc3)C2)cc1` [Example 10.14], 610 nM.

For the compound `CC(=O)N[C@@H](C)c1ccc(N2CC(Oc3ccccc3C)C2)cc1` [Example 10.15], the IC50 was 950 nM. Consider `CC(=O)N[C@@H](C)c1ccc(N2CC(Oc3ccc(Cl)cc3F)C2)cc1` [Example 10.16], for which the IC50 worked out at 2230 nM. Consider `CC(=O)N[C@@H](C)c1ccc(N2CC(Oc3cc(C(F)(F)F)ccc3F)C2)cc1` [Example 10.17], for which the IC50 was 110 nM. Under `COc1ccc(OC2CN(c3ccc([C@H](C)NC(C)=O)cc3)C2)c(F)c1F` [Example 10.18] stands 560 nM; under `COCCOc1ccc(OC2CN(c3ccc([C@H](C)NC(C)=O)cc3)C2)cc1` [Example 10.19], 140 nM; under `C[C@H](NC(=O)C1CC1)c1ccc(N2CC(Oc3ccc(OC(F)(F)F)cc3)C2)cc1` [Example 10.20], 4400 nM. In the case of `COc1ccc(OC2CN(c3ccc([C@H](C)NC(=O)C4CC4)cc3)C2)c(F)c1` [Example 10.21] it was 3990 nM. Consider `C[C@H](NC(=O)C1CC1)c1ccc(N2CC(Oc3ccc(OC(C)(C)C)cc3)C2)cc1` [Example 10.22], for which the IC50 came to 1270 nM.

On to `CCOc1cc(F)c(OC2CN(c3ccc([C@H](C)NC(=O)C4CC4)cc3)C2)c(F)c1` [Example 10.23], for which the IC50 turned out to be 130 nM. `CCOc1ccc(OC2CN(c3ccc([C@H](C)NC(=O)C4CC4)cc3)C2)c(F)c1F` [Example 10.24]: the IC50 was determined as 2260 nM. For the compound `COc1ccc(OC2CN(c3ccc([C@H](C)NC(=O)C4CC4)cc3)C2)cn1` [Example 10.25], the IC50 was 3370 nM. Under `CCC(C)c1ccc(OC2CN(c3ccc([C@H](C)NC(=O)C4CC4)cc3)C2)cc1` (stereo partly shown) [Example 10.26] stands 370 nM. Under `Cc1cc2cc(OC3CN(c4ccc([C@H](C)NC(=O)C5CC5)cc4)C3)ccc2o1` [Example 10.27] stands 170 nM; under `C[C@H](NC(=O)C1CC1)c1ccc(N2CC(Oc3ccc4c(c3)OCO4)C2)cc1` [Example 10.28], 2080 nM; under `COc1ccc(OC2CN(c3ccc([C@H](C)NC(C)=O)cc3)C2)c(Cl)c1` [Example 10.29], 570 nM. Under `CCOc1c(F)cc(OC2CN(c3ccc([C@H](C)NC(=O)C4CC4)cc3)C2)cc1F` [Example 10.30] stands 1560 nM.

For `CCOc1c(F)cc(OC2CN(c3ccc([C@H](C)NC(C)=O)cc3)C2)cc1F` [Example 10.31], the IC50 came to 300 nM. Under `COc1ccc(OC2CN(c3ccc([C@H](C)NC(C)=O)cc3)C2)cn1` [Example 10.32] stands 730 nM. For `CC(=O)N[C@@H](C)c1ccc(N2CC(Oc3ccnc(OCC4CC4)c3)C2)cc1` [Example 11.1, (S)—N-(1-{4-[3-(2-Cyclopropylmethoxy-pyridin-4-yloxy)-azetidin-1-yl]-phenyl}-ethyl)-acetamide], the IC50 stood at 80 nM. In the case of `CC(=O)N[C@@H](C)c1ccc(N2CC(Oc3ccnc(O[C@@H]4CCOC4)c3)C2)cc1` [Example 11.2] it was 270 nM.

For `CC(=O)N[C@@H](C)c1ccc(N2CC(Oc3ccnc(OCC(C)C)c3)C2)cc1` [Example 11.3], the IC50 amounted to 60 nM. Under `CC(=O)N[C@@H](C)c1ccc(N2CC(Oc3ccnc(OCC4CC4(F)F)c3)C2)cc1` (stereo partly shown) [Example 11.5] stands 100 nM.

For orientation: IC50 means the concentration at which inhibition is half-maximal.
